Test [1] deals with T1, full-length CYP46A1 (Homo sapiens, UniProt Q9Y6A2). Put plainly: Inhibition/stimulation of cholesterol hydroxylase activity at fixed 43 μM test compound. The following applies: for inhibition of cholesterol hydroxylation (in words): FIG. 4A-4C; for CHO hydroxylation: remaining activity, None = 100, 43 μM added steroid; for Activity: cholesterol hydroxylation by CYP46A1, % of no compound; for inhibition at 43 µM: read-out: inhibition of the CYP46A1. Type of test: biochemical.

The target of another test is Δ(2-50)CYP46A1dH (Homo sapiens, UniProt Q9Y6A2). In words: Kinetic studies, reconstituted system with cytochrome P450 reductase, truncated CYP46A1. The following applies: compound as substrate; for kcat: Δ(2-50) CYP46A1 with C-terminal 4x His-tag, 37° C.
Test [2] addresses T1, full-length CYP46A1. Put plainly: Kinetic studies, reconstituted system with cytochrome P450 reductase, full-length CYP46A1. As to conditions: compound as substrate; for kcat: Full-length CYP46A1 with C-terminal 4x His-tag, 37° C.
Experimental: (§2) The ability of recombinant CYP46A1 to metabolize CH-3S was tested using the reconstituted with cytochrome P450 reductase in vitro system. After termination of the enzyme reaction, the substrate and products were extracted, solvolyzed, converted into trimethylsilyl ethers and analyzed by gas chromatography-mass spectrometry as described (23). […] The reaction conditions were optimized for the formation of only one product.
(§3) The reconstituted system (1 ml) contained 0.1-0.25 μM P450, 0.5 μM NADPH cytochrome P450 oxidoreductase, varying concentrations of cold substrate (1-75 μM), 250,000 cpm of radiolabeled substrate, and 2U of catalase. […] The organic phase was isolated, evaporated, dissolved in acetonitrile, and subjected to HPLC. […] Substrate metabolism was <18% and linear with reaction time and enzyme concentration.
Test [3] deals with T2, CYP46A1 (Homo sapiens, UniProt Q9Y6A2). In words: Spectral binding studies. The arrangement: 4×His (C). Here is the method:
(§1) Titrations of CYP46A1dH were carried out in 50 mM KPi, pH 7.2, containing 100 mM NaCl and 0.02% Cymal-6. Steroids were added from 0.2-5 mM stocks in 2.5-45% aqueous 2-hydroxypropyl-p-cyclodextrin; clobenpropit, thioperamide, phenacetin, acetaminophen, 4′-(2-hydroxyethoxy)-acetanilide, quinine, quinidine, lansoprazole, and dapsone were dissolved in water, and tranylcypromine in 50% MetOH. The Kd and maximal absorbance change were estimated by non-linear least squares fitting using the quadratic form of the single-site binding equation (30).
Target sequence in this assay (Q9Y6A2 with tags, fused parts or gaps): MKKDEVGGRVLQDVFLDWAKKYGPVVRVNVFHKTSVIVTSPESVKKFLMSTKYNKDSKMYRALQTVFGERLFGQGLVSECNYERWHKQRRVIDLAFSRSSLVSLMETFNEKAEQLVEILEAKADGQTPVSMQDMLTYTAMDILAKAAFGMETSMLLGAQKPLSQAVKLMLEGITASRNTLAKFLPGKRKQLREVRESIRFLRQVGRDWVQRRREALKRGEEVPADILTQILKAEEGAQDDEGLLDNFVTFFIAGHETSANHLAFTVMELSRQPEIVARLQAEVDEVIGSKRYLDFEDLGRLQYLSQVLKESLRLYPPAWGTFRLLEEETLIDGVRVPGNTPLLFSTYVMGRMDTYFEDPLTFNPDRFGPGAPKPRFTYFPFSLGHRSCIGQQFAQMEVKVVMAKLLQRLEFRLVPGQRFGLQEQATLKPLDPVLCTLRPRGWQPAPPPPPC

The target of test [4] is T2, CYP46A1. Put plainly: Spectral binding studies. The arrangement: fused on or other part: C-terminal 4xHis tag (dH). As to conditions: Table 2. Here is the method: as §1
Target sequence in this assay (Q9Y6A2 whole entry): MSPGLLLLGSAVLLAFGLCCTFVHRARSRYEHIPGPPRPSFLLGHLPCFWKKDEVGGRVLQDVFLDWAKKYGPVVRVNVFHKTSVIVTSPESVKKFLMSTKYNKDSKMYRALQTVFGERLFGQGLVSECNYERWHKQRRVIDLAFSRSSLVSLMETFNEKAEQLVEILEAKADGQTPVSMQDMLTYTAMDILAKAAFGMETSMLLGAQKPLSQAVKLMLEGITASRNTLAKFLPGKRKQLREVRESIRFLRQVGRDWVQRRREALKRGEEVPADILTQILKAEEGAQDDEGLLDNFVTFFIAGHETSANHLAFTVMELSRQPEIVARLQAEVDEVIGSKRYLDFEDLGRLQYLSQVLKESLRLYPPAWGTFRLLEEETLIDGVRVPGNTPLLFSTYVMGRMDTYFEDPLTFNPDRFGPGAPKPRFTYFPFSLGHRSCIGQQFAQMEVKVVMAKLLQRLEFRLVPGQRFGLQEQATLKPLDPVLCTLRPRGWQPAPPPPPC
For test [5], the target named is T2, CYP46A1. Put plainly: In vitro IC50 and Ki for CYP46A1-catalysed hydroxylation. Type of test: biochemical. The arrangement: Recombinant full-length human CYPs 46A1 and 27A1 and bovine CYP11A1 were expressed and purified; made in house. The following applies: Ki = IC50/2 assuming competitive inhibition; 5.4 μM cholesterol (at Km); read-out: Ki. How it is done: Cholesterol hydroxylation by CYP46A1 was assayed for 20 min at 37° C. in 1 ml of 50 mM KPi, pH 7.2, containing 100 mM NaCl, 0.02% Cymal 6, 40 μg dilauroylglycerol-3-phosphatidylcholine and 2U of catalase. […] The enzymatic reaction was initiated by NADPH (final 1 mM) and terminated by vortexing with 2 ml of CH2Cl2. The organic phase was isolated, evaporated, dissolved in methanol, and subjected to HPLC. […] In addition, the Ki for cholesterol 24-hydroxylation was estimated assuming a model of competitive inhibition.
Target sequence in this assay (Q9Y6A2 whole entry): as above

[6] abbreviates: 2.7 μM cholesterol, 43 μM compound.
Setting [7] is: 2.7 μM cholesterol, 43 μM compound, FIG. 4B, 4D, 4E.

Counter-ions that a name gives are not always drawn. Like-named read-outs stand apart in the source and are kept apart here.

Sequence of Δ(2-50)CYP46A1dH (Q9Y6A2 with tags, fused parts or gaps): as the sequence (Q9Y6A2 with tags, fused parts or gaps) above
T1 sequence (Q9Y6A2 whole entry): as the sequence (Q9Y6A2 whole entry) above
Experimental for Δ(2-50)CYP46A1dH: as §2, §3

For the compound `Clc1ccc(-c2c[nH]cn2)cc1` [4-CPi, 4-(4-chlorophenyl)imidazole], at full-length CYP46A1 [1] (setting [6]), the “inhibition of cholesterol hydroxylation (in words)” value (shortened to “inhibition … (in words)”) is “significant inhibition”.
Consider `CC(C)[C@@H](O)CC[C@@H](C)[C@H]1CC[C@H]2[C@@H]3CC=C4C[C@@H](O)CC[C@]4(C)[C@H]3CC[C@]12C` [24OH—CH, 24S-hydroxycholesterol], for which the Km on Δ(2-50)CYP46A1dH (Δ(2-50) CYP46A1) worked out at 1500 nM; on full-length CYP46A1 [2] (Full-length CYP46A1) it was 3.9 µM. The kcat is 0.85 min⁻¹ on Δ(2-50)CYP46A1dH and 0.92 min⁻¹ on full-length CYP46A1 [2].
For the compound `CC(C)CCC[C@@H](C)[C@H]1CC[C@H]2[C@@H]3CC=C4C[C@@H](OS(=O)(=O)O)CC[C@]4(C)[C@H]3CC[C@]12C` [Cholesterol-SO4, cholesterol sulfate], the Kd on CYP46A1 [3] stood at 7 nM; on CYP46A1 [4], 50 ± 3 nM. Besides, the kcat on Δ(2-50)CYP46A1dH was determined as 2.5 min⁻¹; on full-length CYP46A1 [2], 0.46 min⁻¹.
On to `CC(C)CCC[C@@H](C)[C@H]1CC[C@H]2[C@@H]3CC=C4C[C@@H](O)CC[C@]4(C)[C@H]3CC[C@]12C` [Cholesterol], for which the CHO hydroxylation at full-length CYP46A1 [1] (2.7 μM cholesterol) is recorded as 27 ± 3%. Moreover, the Kd at CYP46A1 [3] (Δ(2-50)CYP46A1dH, read-out: estimated Kd) was 100 nM; at CYP46A1 [4], 670 ± 20 nM.
On full-length CYP46A1 [1] (2.7 μM cholesterol), `C[C@]12CC[C@@H]3c4ccc(O)cc4CC[C@H]3[C@@H]1CC[C@@H]2O` [Estradiol] yielded a CHO hydroxylation of 32 ± 3%.
In turn, `Cc1cccc(C)c1OCC(C)N` (stereo not shown) [Mexiletine] gave an Activity on full-length CYP46A1 [1] (43 μM compound) of 107 ± 3%.
As for `CC(=O)Nc1ccc(OCCO)cc1` [Phenacetin analog 1, 4′-(2-hydroxyethoxy)-acetanilide], at full-length CYP46A1 [1] (43 μM compound), the “increase (stimulation) of cholesterol 24-hydroxylation” value is reported as 45% and the Activity is listed as 145 ± 5%.
The compound `CCOc1ccc(NC(C)=O)cc1` [Phenacetin] returned an Activity at full-length CYP46A1 [1] (43 μM compound) of 135 ± 5%.
With `CC(=O)[C@H]1CC[C@H]2[C@@H]3CC=C4C[C@@H](O)CC[C@]4(C)[C@H]3CC[C@]12C` [Pregnenolone], on full-length CYP46A1 [1] (2.7 μM cholesterol), the CHO hydroxylation worked out at 32 ± 1%. For the same compound, at CYP46A1 [4], the “Spectral Kd” value is “Not determined, no spectral”.
As for `C[C@]12CC[C@H]3[C@@H](CCC4=CC(=O)CC[C@@]43C)[C@@H]1CC[C@@H]2O` [Testosterone], the CHO hydroxylation at full-length CYP46A1 [1] (2.7 μM cholesterol) was 49 ± 4%.
Consider `CN/C(=N/CCSCc1nc[nH]c1C)NC#N` [cimetidine], for which, on full-length CYP46A1 [1] (setting [7]), the inhibition at 43 µM was above 90%.
For the compound `NC(=NCc1ccc(Cl)cc1)SCCCc1cnc[nH]1` [clobenpropit], the inhibition at 43 µM at full-length CYP46A1 [1] was above 90%.
Regarding `Clc1ccccc1C(c1ccccc1)(c1ccccc1)n1ccnc1` [clotrimazole], the “inhibition … (in words)” value at full-length CYP46A1 [1] (setting [6]) is given as “significant inhibition”.
Turning to `NC(N)=Nc1nc(CSCCC(N)=NS(N)(=O)=O)cs1` [famotidine], the “inhibition … (in words)” value on full-length CYP46A1 [1] (setting [6]) is given as “inhibited cholesterol hydroxylation”.
The same measure, in the same setting: the result for `CNC(=C[N+](=O)[O-])NCCSCc1csc(CN(C)C)n1` [nizatidine] reads “inhibited cholesterol hydroxylation”.
Regarding `CNC(=C[N+](=O)[O-])NCCSCc1ccc(CN(C)C)o1` [ranitidine], the inhibition at 43 µM at full-length CYP46A1 [1] (setting [7]) was above 90%.
Regarding `S=C(NC1CCCCC1)N1CCC(c2cnc[nH]2)CC1` [thioperamide], at full-length CYP46A1 [1] (setting [6]), the “inhibition … (in words)” value is listed as “inhibited cholesterol hydroxylation”.
Acetaminophen: on full-length CYP46A1 [1] (43 μM compound), the Activity is 132 ± 4%.
The compound DHEA returned a CHO hydroxylation at full-length CYP46A1 [1] (2.7 μM cholesterol) of 58 ± 3%.
Still for that read-out and setting: next, DHEA sulfate [DHEA-SO4]: 33 ± 3%; estradiol sulfate [Estradiol-SO4]: 27 ± 2%.
pregnenolone sulfate [Pregnenolone-SO4] showed a CHO hydroxylation at full-length CYP46A1 [1] (2.7 μM cholesterol) of 8 ± 2%. Moreover, the Ki at CYP46A1 [5] is 2500 nM.
For the compound testosterone sulfate [Testosterone-SO4], at full-length CYP46A1 [1] (2.7 μM cholesterol), the CHO hydroxylation is recorded as 40 ± 2%.

As a reminder, the Km is the substrate concentration at which the rate is half of its maximum. By kcat is commonly meant the number of substrate molecules converted per active site and unit of time at saturation. The Kd is the concentration at which binding is half-saturated. One may read the inhibition as the share of the control response that was lost under treatment. In general, Ki refers to a measure of affinity in units of concentration, obtained from inhibition or displacement.

The record behind these values is patent US20170182047A9, “Post-Translational Regulation of Catalytic Activities of Cytochrome P450 46A1 and Uses Thereof” (The Board of Regents of the University of Texas System, priority 2007, published 2017).
